US20060069132A1, “Azolecarboxamide herbicides” (priority 2004, published 2006)

Assays:
barnyardgrass [1] = assay: Test B pre-/postemergence herbicide test; type: in vivo, Echinochloa crus-galli; details: for Plant response rating (0 to 100 scale), Barnyardgrass: 0 is no effect; for Barnyardgrass plant response rating: postemergence
Procedure, shortened: (§1)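 Response was scored visually 13 to 15 days after treatment against untreated greenhouse controls, 0 meaning no effect and 100 complete control. Formulations (solvent mixture plus surfactant) went onto soil after planting, onto foliage of 1- to 4-leaf plants, and onto 2-leaf plants in a flooded paddy set including rice and barnyardgrass.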

blackgrass = assay: Test B postemergence herbicide test; type: in vivo, Alopecurus myosuroides; details: postemergence
Procedure, shortened: (§2)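 Visual control ratings, 0–100 versus untreated controls, taken after 13 to 15 days in the greenhouse. Blackgrass received a postemergence spray at the 1- to 4-leaf stage (2–18 cm); ducksalad, umbrella sedge and barnyardgrass were flooded-paddy treated at 2 leaves.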

giant foxtail = assay: Test B pre-/postemergence herbicide test; type: in vivo, Setaria faberi; details: for Plant response rating (0 to 100 scale), Foxtail, Giant: 0 is no effect; for Foxtail, Giant plant response rating: postemergence
Procedure, shortened: (§3)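 Visual rating, 0 (no effect) to 100 (complete control), versus untreated controls after 13–15 d in greenhouse. Pre- and postemergence applications (postemergence plants 2–18 cm, 1–4 leaves); flooded paddy arm at 2-leaf stage. Compounds in non-phytotoxic solvent plus surfactant.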

corn = assay: Test B pre-/postemergence herbicide test; type: in vivo, Zea mays; details: for Plant response rating (0 to 100 scale), Corn: 0 is no effect; for Corn plant response rating: postemergence
Procedure, shortened: as §3

rice [2] = assay: Test C flooded paddy test; type: in vivo, Oryza sativa; details: for Plant response rating, Rice: 500 g ai/ha, visual rating after 12 to 14 days
Method: (§4) At the same time, plants selected from these crop and weed species and also winter barley (Hordeum vulgare L.), blackgrass (Alopecurus myosuroides Huds.), canarygrass (Phalaris minor Retz.), chickweed (Stellaria media (L.) Vill.), downy bromegrass (Bromus tectorum L.), green foxtail (Setaria viridis (L.) Beauv.), Italian ryegrass (Lolium multiflorum Lam.), wheat (Triticum aestivum L.), wild oat (Avenafatua L.) and windgrass (Apera spica-venti (L.) Beauv.) were treated with postemergence applications of some of the test chemicals formulated in the same manner. Plants ranged in height from 2 to 18 cm (1- to 4-leaf stage) for postemergence treatments. Plant species in the flooded paddy test consisted of rice (Oryza sativa), smallflower umbrella sedge (Cyperus difformis L.), ducksalad (Heteranthera limosa (Sw.) Willd.) and barnyardgrass (Echinochloa crus-galli (L.) Beauv.) grown to the 2-leaf stage for testing. Treated plants and controls were maintained in a greenhouse for 12 to 14 days, after which time all species were compared to controls and visually evaluated. Plant response ratings, summarized in Table C, are based on a scale of 0 to 100 where 0 is no effect and 100 is complete control. A dash (-) response means no test result.

ducksalad [3] = assay: Test B flooded paddy test; type: in vivo, Heteranthera limosa; details: 1000 g ai/ha, scale 0 to 100 (0 no effect, 100 complete control)
Procedure, shortened: as §2

barnyardgrass [4] = assay: Test C flooded paddy test; type: in vivo, Echinochloa crus-galli; details: for Plant response rating, Barnyardgrass: 500 g ai/ha, visual rating after 12 to 14 days
Method: as §4

wheat = assay: Test B postemergence herbicide test; type: in vivo, Triticum aestivum; set-up: key to Wheat plant response rating: 0 = no effect, 100 = complete control
Procedure, shortened: (§5)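 Plants grow to 1- to 4-leaf stage (2–18 cm) for postemergence spraying, or to 2-leaf stage for the paddy test. Formulated compound is applied. Greenhouse holding lasts 13–15 days. Response is scored visually relative to controls, 0 no effect to 100 complete control; a dash means no result.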

rice [5] = assay: Test B flooded paddy test; type: in vivo, Oryza sativa; details: 1000 g ai/ha, scale 0 to 100 (0 no effect, 100 complete control)
Procedure, shortened: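 Read-out: visual comparison with controls, scored 0 to 100, where 100 means complete control and 0 no effect. Formulated chemicals were applied postemergence to plants 2–18 cm tall (1- to 4-leaf), or to flooded-paddy plants at the 2-leaf stage, then held 13 to 15 days under glass.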

Surinam grass = assay: Test B pre-/postemergence herbicide test; type: in vivo, Urochloa decumbens; details: for Plant response rating (0 to 100 scale), Surinam Grass: 0 is no effect
Procedure, shortened: as §3

[6] = tested on: small flower umbrella sedge; assay: Test B flooded paddy test; type: in vivo, Cyperus difformis; details: 1000 g ai/ha, scale 0 to 100 (0 no effect, 100 complete control)
Procedure, shortened: as §2

ducksalad [7] = assay: Test C flooded paddy test; type: in vivo, Heteranthera limosa; details: for Plant response rating, Ducksalad: 500 g ai/ha, visual rating after 12 to 14 days
Method: as §4

velvetleaf = assay: Test B pre-/postemergence herbicide test; type: in vivo, Abutilon theophrasti; details: for Plant response rating (0 to 100 scale), Velvetleaf: 0 is no effect, preemergence
Procedure, shortened: as §3

wild oat = assay: Test B postemergence herbicide test; type: in vivo, Avena fatua
Procedure, shortened: as §5

pigweed = assay: Test B pre-/postemergence herbicide test; type: in vivo, Amaranthus retroflexus; details: for Plant response rating (0 to 100 scale), Pigweed: 0 is no effect
Procedure, shortened: as §3

[8] = tested on: smallflower umbrella sedge; assay: Test C flooded paddy test; type: in vivo, Cyperus difformis
Method: as §4

lambsquarters = assay: Test B pre-/postemergence herbicide test; type: in vivo, Chenopodium album; details: for Plant response rating (0 to 100 scale), Lambsquarters: 0 is no effect
Procedure, shortened: as §3

barnyardgrass [9] = assay: Test B flooded paddy test; type: in vivo, Echinochloa crus-galli; details: 1000 g ai/ha, scale 0 to 100 (0 no effect, 100 complete control)
Procedure, shortened: as §2

morningglory = assay: Test B pre-/postemergence herbicide test; type: in vivo, Ipomoea coccinea; details: for Plant response rating (0 to 100 scale), Morningglory: 0 is no effect
Procedure, shortened: as §1

large crabgrass = assay: Test B pre-/postemergence herbicide test; type: in vivo, Digitaria sanguinalis; details: for Plant response rating (0 to 100 scale), Crabgrass, Large: 0 is no effect; for Crabgrass, Large plant response rating: postemergence
Procedure, shortened: as §3

cocklebur = assay: Test B pre-/postemergence herbicide test; type: in vivo, Xanthium strumarium; details: for Plant response rating (0 to 100 scale), Cocklebur: 0 is no effect; for Cocklebur plant response rating: postemergence
Procedure, shortened: as §1

[10] = 125 g ai/ha, 100 is complete control, preemergence
[11] = 125 g ai/ha, visual rating, scale 0 (no effect) to 100 (complete control)
[12] = 500 g ai/ha, scale 0 to 100, 0 is no effect, 100 is complete control
[13] = 125 g ai/ha, scale 0 to 100 (0 no effect, 100 complete control)
[14] = 250 g ai/ha, scale of 0 to 100, 0 is no effect, 100 is complete control
[15] = scale 0 to 100 (0 no effect, 100 complete control)
[16] = 62 g ai/ha, scale 0 to 100 (0 no effect, 100 complete control)
[17] = 125 g ai/ha, visual rating, scale 0 (no effect) to 100 (complete control), postemergence
[18] = Postemergence, 500 g ai/ha, scale 0 (no effect) to 100 (complete control)
[19] = 125 g ai/ha, 100 is complete control
[20] = 500 g ai/ha, visual rating, 0 = no effect, 100 = complete control, preemergence
[21] = postemergence, 500 g ai/ha, scale 0 to 100, 0 is no effect, 100 is complete control

CCc1nn(C(C)(C)CC)nc1C(=O)Nc1cccc(C(=O)N2CC=CC2)c1 [Compound 369]
10: Barnyardgrass plant response rating (barnyardgrass [1]; [11]) | Corn plant response rating (corn; [11]) | Corn plant response rating (corn; [12]) | Barnyardgrass plant response rating (barnyardgrass [4]; [16]) | Surinam Grass plant response rating (Surinam grass; [17]) | Surinam Grass plant response rating (Surinam grass; [18]) | Velvetleaf plant response rating (velvetleaf; [17]) | Crabgrass, Large plant response rating (large crabgrass; [11])
30: Plant response rating (0 to 100 scale), Barnyardgrass (barnyardgrass [1]; [10]) | Blackgrass plant response rating (blackgrass; [12]) | Foxtail, Giant plant response rating (giant foxtail; [12]) | Oat, Wild plant response rating (wild oat; [18]) | Pigweed plant response rating (pigweed; [17])
85: Sedge, Umbrella plant response rating [8, 14]
75: Sedge, Umbrella plant response rating ([8]; 62 g ai/ha, scale 0 to 100) | Sedge, Umbrella plant response rating [8, 13]
100: Plant response rating (0 to 100 scale), Lambsquarters (lambsquarters; [10])
65: Plant response rating, Rice (rice [2]; [15]) | Plant response rating, Barnyardgrass (barnyardgrass [4]; [15])
60: Rice plant response rating (rice [2]; [13]) | Rice plant response rating (rice [2]; [14]) | Rice plant response rating (rice [5]) | Velvetleaf plant response rating (velvetleaf; [18]) | Pigweed plant response rating (pigweed; [18])
20: Barnyardgrass plant response rating (barnyardgrass [1]; [12]) | Plant response rating (0 to 100 scale), Foxtail, Giant (giant foxtail; [10]) | Foxtail, Giant plant response rating (giant foxtail; [11]) | Plant response rating (0 to 100 scale), Corn (corn; [10]) | Oat, Wild plant response rating (wild oat; [17]) | Lambsquarters plant response rating (lambsquarters; [17]) | Morningglory plant response rating (morningglory; [18]) | Plant response rating (0 to 100 scale), Crabgrass, Large (large crabgrass; [10]) | Crabgrass, Large plant response rating (large crabgrass; [12]) | Cocklebur plant response rating (cocklebur; [11])
55: Rice plant response rating (rice [2]; 62 g ai/ha, scale 0 to 100)
70: Lambsquarters plant response rating (lambsquarters; [18]) | Cocklebur plant response rating (cocklebur; [12])
50: Barnyardgrass plant response rating (barnyardgrass [4]; [14]) | Barnyardgrass plant response rating (barnyardgrass [9])
0: Blackgrass plant response rating (blackgrass; [11]) | Wheat plant response rating (wheat; [17]) | Wheat plant response rating (wheat; 500 g ai/ha, scale 0 to 100, 0 no effect, 100 complete control, preemergence) | Wheat plant response rating (wheat; [18]) | Plant response rating (0 to 100 scale), Surinam Grass (Surinam grass; [10]) | Plant response rating (0 to 100 scale), Velvetleaf (velvetleaf; [19]) | Plant response rating (0 to 100 scale), Morningglory (morningglory; [10]) | Morningglory plant response rating (morningglory; [17]) | Plant response rating (0 to 100 scale), Cocklebur (cocklebur; [10])
45: Barnyardgrass plant response rating (barnyardgrass [4]; [13])
90: Ducksalad plant response rating (ducksalad [3])
80: Sedge, Umbrella plant response rating [6] | Ducksalad plant response rating (ducksalad [7]; 62 g ai/ha, scale 0 to 100) | Ducksalad plant response rating (ducksalad [7]; [13]) | Ducksalad plant response rating (ducksalad [7]; [14]) | Plant response rating, Ducksalad (ducksalad [7]; [15]) | Plant response rating (0 to 100 scale), Pigweed (pigweed; [10])

CCNC(=S)c1ccc(F)c(NC(=O)c2cc(C(C)(C)C)nn2CC)c1 [Compound 349]
85: Ducksalad plant response rating (ducksalad [7]; [13]) | Ducksalad plant response rating (ducksalad [7]; [14]) | Sedge, Umbrella plant response rating [8, 13]
55: Rice plant response rating (rice [2]; [13])
60: Rice plant response rating (rice [2]; [14])
30: Foxtail, Giant plant response rating (giant foxtail; [12]) | Plant response rating (0 to 100 scale), Velvetleaf (velvetleaf; [19]) | Plant response rating, Morningglory (morningglory; [20])
45: Barnyardgrass plant response rating (barnyardgrass [4]; [16])
70: Plant response rating (0 to 100 scale), Foxtail, Giant (giant foxtail; [10]) | Plant response rating (0 to 100 scale), Corn (corn; [10]) | Plant response rating, Rice (rice [2]; [15]) | Barnyardgrass plant response rating (barnyardgrass [4]; [13]) | Rice plant response rating (rice [5]) | Pigweed plant response rating (pigweed; [21])
100: Plant response rating, Barnyardgrass (barnyardgrass [1]; [20]) | Plant response rating, Foxtail, Giant (giant foxtail; [20]) | Plant response rating (0 to 100 scale), Pigweed (pigweed; [10]) | Plant response rating, Pigweed (pigweed; [20]) | Plant response rating (0 to 100 scale), Lambsquarters (lambsquarters; [10]) | Plant response rating, Lambsquarters (lambsquarters; [20]) | Plant response rating (0 to 100 scale), Crabgrass, Large (large crabgrass; [10]) | Plant response rating, Crabgrass, Large (large crabgrass; [20])
10: Barnyardgrass plant response rating (barnyardgrass [1]; [12]) | Corn plant response rating (corn; [12]) | Wheat plant response rating (wheat; [21]) | Oat, Wild plant response rating (wild oat; [17])
90: Ducksalad plant response rating (ducksalad [3]) | Barnyardgrass plant response rating (barnyardgrass [4]; [14]) | Plant response rating, Surinam Grass (Surinam grass; [20]) | Sedge, Umbrella plant response rating [8, 14]
20: Blackgrass plant response rating (blackgrass; [11]) | Surinam Grass plant response rating (Surinam grass; [21]) | Crabgrass, Large plant response rating (large crabgrass; [11]) | Crabgrass, Large plant response rating (large crabgrass; [12]) | Cocklebur plant response rating (cocklebur; [12])
50: Rice plant response rating (rice [2]; 62 g ai/ha, scale 0 to 100) | Plant response rating (0 to 100 scale), Surinam Grass (Surinam grass; [10]) | Morningglory plant response rating (morningglory; [21])
0: Barnyardgrass plant response rating (barnyardgrass [1]; [11]) | Foxtail, Giant plant response rating (giant foxtail; [11]) | Corn plant response rating (corn; [11]) | Wheat plant response rating (wheat; [17]) | Surinam Grass plant response rating (Surinam grass; [17]) | Velvetleaf plant response rating (velvetleaf; [17]) | Pigweed plant response rating (pigweed; [17]) | Lambsquarters plant response rating (lambsquarters; [17]) | Plant response rating (0 to 100 scale), Morningglory (morningglory; [10]) | Morningglory plant response rating (morningglory; [17]) | Plant response rating (0 to 100 scale), Cocklebur (cocklebur; [10]) | Cocklebur plant response rating (cocklebur; [11])
95: Plant response rating, Barnyardgrass (barnyardgrass [4]; [15]) | Plant response rating, Ducksalad (ducksalad [7]; [15]) | Plant response rating, Sedge, Umbrella ([8]; 500 g ai/ha, visual rating after 12 to 14 days, scale 0 to 100 (0 no effect, 100 complete control))
40: Velvetleaf plant response rating (velvetleaf; [21]) | Oat, Wild plant response rating (wild oat; [21])
80: Plant response rating (0 to 100 scale), Barnyardgrass (barnyardgrass [1]; [10]) | Blackgrass plant response rating (blackgrass; [12]) | Plant response rating, Corn (corn; [20]) | Sedge, Umbrella plant response rating [6] | Ducksalad plant response rating (ducksalad [7]; 62 g ai/ha, scale 0 to 100) | Sedge, Umbrella plant response rating ([8]; 62 g ai/ha, scale 0 to 100) | Lambsquarters plant response rating (lambsquarters; [21]) | Barnyardgrass plant response rating (barnyardgrass [9]) | Plant response rating, Cocklebur (cocklebur; [20])
